The text below walks through data of PubChem BioAssay (NCI).

Some test systems named below: 786-0 renal; BT-549 breast; EKVX NSCLC; HS 578T breast; HT29 colon; MCF7 breast; MDA-MB-435; PC-3 prostate; SK-OV-3 ovarian; RXF 393 renal.
What all share (test): NCI tumour cell line growth inhibition, 48 h

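Five compound concentrations were applied to cells in 96-well plates for 48 hours; endpoints were derived by simple linear interpolation of the resulting dose-response curve. GI50 marks 50% less growth. The concentration for full growth arrest is given as TGI.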

On to `C=C1[C@H](O)C[C@@H](C(C)C(O)CC=C(C)C)[C@@H](O)[C@@H]2C(C)=CC[C@@H]12` (some centres undefined), for which the GI50 in the test with 786-0 renal, with BT-549 breast, in the test with EKVX NSCLC, in the test on HS 578T breast, in the test with HT29 colon and in the test with MCF7 breast was over 100 µM throughout. Also, the GI50 in the test with MDA-MB-435, in the test with PC-3 prostate and with SK-OV-3 ovarian was over 100 µM in each case. Besides, the TGI in the test on 786-0 renal, in the test with BT-549 breast, in the test on EKVX NSCLC, with HS 578T breast, with HT29 colon and in the test with MCF7 breast was over 100 µM in each case. Also, the TGI in the test with MDA-MB-435, in the test with PC-3 prostate and with SK-OV-3 ovarian was over 100 µM each time.

`N#Cc1cc([N+](=O)[O-])ccc1NC(=O)C(=O)Nn1c(=S)[nH]c2ccccc2c1=O`: the TGI with 786-0 renal, with EKVX NSCLC, with HT29 colon, in the test with RXF 393 renal and in the test with SK-OV-3 ovarian was over 100 µM throughout.

As for `O=C1C2=C(c3ccccc31)C(c1ccc([N+](=O)[O-])cc1)NC(=S)N2` (centres undefined), the TGI in the test with 786-0 renal, in the test with EKVX NSCLC, in the test with HT29 colon and in the test on SK-OV-3 ovarian was over 100 µM each time.

As to `Clc1cc2ns[s+]c2cc1Cl`, the TGI in the test on 786-0 renal, with EKVX NSCLC, in the test on HT29 colon, in the test with RXF 393 renal and with SK-OV-3 ovarian was over 100 µM each time.

As for `O=S1(=O)CC#CC[C@@H](CO)[C@@H](CO)CC#CC1`, the TGI in the test on 786-0 renal, with EKVX NSCLC, in the test with HT29 colon, in the test with RXF 393 renal and in the test with SK-OV-3 ovarian was over 100 µM each time.

Consider `Oc1ccc(Cl)cc1N=Nc1c(O)ccc2ccccc12`, for which the TGI in the test with 786-0 renal, in the test on BT-549 breast, in the test with EKVX NSCLC, with HS 578T breast, in the test with HT29 colon and in the test with MDA-MB-435 was over 100 µM throughout. The TGI in the test with PC-3 prostate, with RXF 393 renal and in the test on SK-OV-3 ovarian was over 100 µM throughout.

As for `CCCCCCCCCCCCCC(=O)OCC1OC(=O)C(O)C1O` (centres undefined), the TGI in the test with 786-0 renal, in the test with EKVX NSCLC, with HT29 colon and with SK-OV-3 ovarian was over 100 µM each time.

For the compound `CN(C)c1ccc(/C=C(\C#N)C(=O)c2ccccc2)cc1Br`, the TGI is over 100 µM in the test with 786-0 renal; over 100 µM with EKVX NSCLC; over 100 µM in the test with HT29 colon; 29.6 µM in the test with RXF 393 renal; over 100 µM with SK-OV-3 ovarian.

Regarding `O=c1[nH]c(C2CCCCC2)nc2ccc(Cl)cc12`, the TGI in the test with 786-0 renal, in the test on EKVX NSCLC, with HT29 colon, with RXF 393 renal and with SK-OV-3 ovarian was over 100 µM each time.

On to `c1ccc2cc(Cn3c(-c4cccc5ccccc45)[n+](Cc4ccc5ccccc5c4)c4c5ccccc5c5ccccc5c43)ccc2c1`, for which the GI50 in the test on 786-0 renal is 0.308 µM; in the test on EKVX NSCLC it was 0.268 µM; with HS 578T breast, 0.383 µM; in the test with MCF7 breast it was 0.244 µM; in the test with MDA-MB-435, 0.359 µM; with PC-3 prostate, 0.158 µM. In addition, in the test on SK-OV-3 ovarian, the GI50 is 0.322 µM. Further, the TGI was determined as 1.7 µM in the test with 786-0 renal; 1.66 µM in the test on EKVX NSCLC; 2.45 µM with HS 578T breast; 1.2 µM with MCF7 breast; 1.38 µM with MDA-MB-435; 1.53 µM in the test on PC-3 prostate. This compound also returned a TGI in the test on SK-OV-3 ovarian of 1.62 µM.

In the case of `CC#CC#C/C=C1/C=CC2(CCCCO2)O1` (centres undefined), the TGI in the test on 786-0 renal, with BT-549 breast, in the test on EKVX NSCLC, in the test with HS 578T breast, with HT29 colon and with MCF7 breast was over 100 µM throughout. The TGI in the test with MDA-MB-435, in the test with PC-3 prostate and with SK-OV-3 ovarian was over 100 µM in each case.

Regarding `CS(=O)(=O)Nc1cc(-c2ccc3ncnc(Nc4ccc(OCc5ccccn5)c(Cl)c4)c3c2)cnc1Cl`, the GI50 in the test with 786-0 renal is 0.804 µM; in the test with BT-549 breast, 0.14 µM; in the test with EKVX NSCLC, 0.313 µM; in the test on HT29 colon, 0.456 µM; with MCF7 breast it was 0.185 µM; in the test on MDA-MB-435, 0.376 µM. Moreover, the GI50 in the test with PC-3 prostate is 0.349 µM; in the test with SK-OV-3 ovarian, 0.21 µM. The TGI in the test on 786-0 renal is over 100 µM; in the test on BT-549 breast, 1.23 µM; in the test on EKVX NSCLC, 3.46 µM; with HT29 colon it was 38.5 µM; in the test on MCF7 breast it was over 100 µM; in the test on MDA-MB-435, 2.78 µM. In addition, the TGI was over 100 µM with PC-3 prostate and 1.16 µM in the test with SK-OV-3 ovarian.

Turning to `Cc1ccc(C2=C(c3ccccc3)C(O)(c3ccccc3)C(c3ccccc3)=C2c2ccc(C)cc2)cc1`, the TGI in the test with 786-0 renal, with EKVX NSCLC, in the test with HT29 colon, in the test with RXF 393 renal and with SK-OV-3 ovarian was over 100 µM in each case.

On to `CC(C)c1cccc(C(C)C)c1NC(=O)/C(Cc1nc2ccc(Cl)cc2[nH]c1=O)=N\NC(=O)C[N+](C)(C)C`, for which the TGI with 786-0 renal, with EKVX NSCLC, with HT29 colon, in the test with RXF 393 renal and with SK-OV-3 ovarian was over 100 µM in each case.

Take `OCC1OC(NO)C(O)C(O)C1O` (centres undefined): the TGI in the test with 786-0 renal, in the test on HT29 colon and in the test on RXF 393 renal was over 100 µM in each case.

Regarding `Cc1ccccc1C1SCc2nc3ccccc3n21` (centres undefined), the TGI in the test on 786-0 renal, in the test on EKVX NSCLC, in the test on RXF 393 renal and in the test with SK-OV-3 ovarian was over 100 µM each time.

In the case of `CN1C(=O)CC(CC(=O)C2CCCCC2=O)CC1=O` (centres undefined), the TGI with 786-0 renal, in the test with EKVX NSCLC, with HT29 colon, in the test with RXF 393 renal and with SK-OV-3 ovarian was over 100 µM each time.

Regarding `CCn1c(C)nc([N+](=O)[O-])c1Sc1ncc[nH]1`, the TGI in the test with 786-0 renal, with EKVX NSCLC, with HT29 colon and in the test with SK-OV-3 ovarian was over 100 µM throughout.

As for `O=C1/C(=C/c2ccc(C(=O)O)cc2)CNC/C1=C\c1ccc(C(=O)O)cc1`, the TGI in the test with 786-0 renal, with HT29 colon, in the test with RXF 393 renal and in the test on SK-OV-3 ovarian was over 100 µM throughout.
